# Experiments:
# IRE1a [1] = biological target: T1, IRE1a (Homo sapiens, UniProt O75460); experiment: IRE1a Endoribonuclease Nanoluciferase Assay (XBP1 luciferase reporter in 293 T cells); format: cell-based; details: 293 T cells transfected with XBP1 luciferase reporter plasmid
# Method: Compounds disclosed herein were assessed for disruption of IRE1 signaling using a IRE1a Endoribonuclease Nanoluciferase Assay. Briefly, 2.5×10^6 293 T cells were seeded in a 10 cm^2 tissue culture plate. About 24 hours later, the cells were transfected with Effectene. In a 15 mL Tube, the following was added: 2 μg XBP1 luciferase reporter plasmid (PGK-Luc2-P2A-XBP1u-Nanoluciferase-PEST); 300 μl EC buffer; and 16 μl Enhancer, followed by incubation at room temp for 5 minutes. Next, 60 μl Effectene (Qiagen 301427) was added, followed by incubation at room temperature for 10 minutes. 2.6 mL cDMEM media was added. Old media was aspirated from the cells, followed by addition of 7 mL fresh media. Full transfection mixture was added dropwise to cells. Cells were incubated for 6 hours, followed by tripsinization, centrifugation and resuspension in 11 mL media. 100 uL of cells were plated per a well in a 96 well plate. A day later, stressors of choice+/− inhibitors were added. To harvest, media was aspirated from cells completely, then 50 uL 1× passive lysis buffer (Promega: E1941) was added per well and put on shaker (300 rpm) for 30 minutes at room temperature. Cells were centrifuged, and 15 uL sample per well was added to a new, opaque white 384 well plate (Corning 3570). 15 uL OneGlo (nanoluciferase kit, Promega N1630) was added. Plates were spun down, placed on shaker (300 rpm) for 10 minutes. Plates were read on luminometer, 1000 ms integration time per well. 15 uL Stop and Glo (nanoluciferase kit) was added. Plates were spun down, placed on shaker (300 rpm) for 10 minutes. Plates were read on luminometer, 1000 ms second integration time per well. Recordings are provided below in Table 4.
# IRE1a [2] = biological target: T1, IRE1a; experiment: In vitro FRET assay (XBP1 RNA probe cleavage by IRE1a); format: biochemical; design: purchased SignalChem; details: SignalChem IRE1a protein 2 nM
# Method: In vitro FRET assay was performed to evaluate the ability of select compounds to inhibit IRE1, the results of which are summarized in Table 3. To perform the in vitro FRET assay, 1× complete assay buffer (CAB; […] DTT, 50 mM sodium citrate pH 7.15, 1 mM magnesium acetate, 0.02% tween 20) was used to dilute SignalChem IRE1a protein to a final concentration of 2 nM. Selected compounds were serially diluted with DMSO in a non-binding black 384-well plate for a total of 15 ul in each well. 2 ul of the serially diluted compound or DMSO control were then added to new wells containing 98 ul of 1×CAB, for a total volume of 100 ul, 10 ul of which were then transferred to wells of a new plate. 5 ul of the diluted IRE1a was then added to each well. 5 ul of a […] XBP1 RNA probe was then added to each well. Fluorescence was then read over 30 minutes in kinetic mode (485/515 nm).
# Two RNA probes were used, XBP1 wildtype (SEQ ID NO: 2) which is able to be spliced by active IRE1a or XBP1 mutant (SEQ ID NO: 3) which is unable to be spliced. Each probe contained a 5′ 6-FAM modification and a 3′ IOWA Black FQ modification.
# T1 sequence (O75460 19-977): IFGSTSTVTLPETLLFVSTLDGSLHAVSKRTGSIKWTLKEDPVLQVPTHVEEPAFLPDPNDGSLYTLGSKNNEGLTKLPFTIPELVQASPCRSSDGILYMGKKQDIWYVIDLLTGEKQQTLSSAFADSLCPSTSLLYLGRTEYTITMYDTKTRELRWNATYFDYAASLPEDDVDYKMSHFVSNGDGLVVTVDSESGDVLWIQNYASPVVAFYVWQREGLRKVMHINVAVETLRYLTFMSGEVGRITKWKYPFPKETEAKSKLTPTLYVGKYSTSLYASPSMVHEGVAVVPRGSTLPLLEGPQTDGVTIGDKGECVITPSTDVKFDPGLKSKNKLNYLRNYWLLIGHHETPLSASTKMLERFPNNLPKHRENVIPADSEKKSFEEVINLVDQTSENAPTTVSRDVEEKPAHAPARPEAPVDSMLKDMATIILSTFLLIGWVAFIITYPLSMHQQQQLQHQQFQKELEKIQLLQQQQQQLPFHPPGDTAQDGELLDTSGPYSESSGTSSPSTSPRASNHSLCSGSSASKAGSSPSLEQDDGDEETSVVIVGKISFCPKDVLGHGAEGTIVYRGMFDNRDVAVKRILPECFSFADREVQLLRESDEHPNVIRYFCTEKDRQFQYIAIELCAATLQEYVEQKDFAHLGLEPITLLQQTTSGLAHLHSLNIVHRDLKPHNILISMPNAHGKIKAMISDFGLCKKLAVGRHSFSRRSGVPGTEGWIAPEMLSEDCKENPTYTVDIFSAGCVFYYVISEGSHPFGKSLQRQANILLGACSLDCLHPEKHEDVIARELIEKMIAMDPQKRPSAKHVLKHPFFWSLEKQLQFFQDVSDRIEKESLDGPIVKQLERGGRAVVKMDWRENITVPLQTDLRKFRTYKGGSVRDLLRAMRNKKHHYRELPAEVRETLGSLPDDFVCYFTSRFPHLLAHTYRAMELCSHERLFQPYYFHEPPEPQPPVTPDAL
Structure (SMILES),EC50 (IRE1a [1]) [nM],IC50 (IRE1a [2]) [nM]
"CCc1cc(-c2cc(NC(=O)C(CC)c3ccccc3)nn2C)cc2cnc(N[C@H]3CC[C@H](N)CC3)nc12 (some centres unmarked) [Compound 16, N-(5-(2-(((1r,4r)-4-aminocyclohexyl)amino)-8-ethylquinazolin-6-yl)-1-methyl-1H-pyrazol-3-yl)-2-phenylbutanamide]",> 100,≤ 5
"CCc1cc(-c2cc(NC(=O)Cc3ccc(Cl)c(C(F)(F)F)c3)nn2C)cc2cnc(N[C@H]3CC[C@H](N)CC3)nc12 [Compound 18, N-(5-(2-(((1r,4r)-4-aminocyclohexyl)amino)-8-ethylquinazolin-6-yl)-1-methyl-1H-pyrazol-3-yl)-2-(4-chloro-3-(trifluoromethyl)phenyl)acetamide]",> 100,5 to 50
"CCc1cc(-c2cc(NC(=O)Nc3cccc(C(F)(F)F)c3)nn2C)cc2cnc(N[C@H]3CC[C@H](N)CC3)nc12 [Compound 19, 1-(5-(2-(((1r,4r)-4-aminocyclohexyl)amino)-8-ethylquinazolin-6-yl)-1-methyl-1H-pyrazol-3-yl)-3-(3-(trifluoromethyl)phenyl)urea]",5 to 50,≤ 5
"CCc1cc(-c2cc(NC(=O)C(C)c3cccc(C(F)(F)F)c3)nn2C)cc2cnc(N[C@H]3CC[C@H](N)CC3)nc12 (some centres unmarked) [Compound 25, N-(5-(2-(((1r,4r)-4-aminocyclohexyl)amino)-8-ethylquinazolin-6-yl)-1-methyl-1H-pyrazol-3-yl)-2-(3-(trifluoromethyl)phenyl)propanamide]",> 100,5 to 50
"CCc1cc(-c2cc(NC(=O)Cc3cc(C)cc(F)c3)nn2C)cc2cnc(N[C@H]3CC[C@H](N)CC3)nc12 [Compound 27, N-(5-(2-(((1r,4r)-4-aminocyclohexyl)amino)-8-ethylquinazolin-6-yl)-1-methyl-1H-pyrazol-3-yl)-2-(3-fluoro-5-methylphenyl)acetamide]",> 100,5 to 50
"CCc1cc(-c2cc(NC(=O)Nc3ccc(OCCCNC)c(C(F)(F)F)c3)nn2C)cc2cnc(N[C@H]3CC[C@H](N)CC3)nc12 [Compound 29, 1-(5-(2-(((1r,4r)-4-aminocyclohexyl)amino)-8-ethylquinazolin-6-yl)-1-methyl-1H-pyrazol-3-yl)-3-(4-(3-(methylamino)propoxy)-3-(trifluoromethyl)phenyl)urea]",≤ 5,≤ 5
"CCc1cc(-c2cc(NC(=O)Cc3ccc(OCCCNC)c(C(F)(F)F)c3)nn2C)cc2cnc(N[C@H]3CC[C@H](N)CC3)nc12 [Compound 30, N-(5-(2-(((1r,4r)-4-aminocyclohexyl)amino)-8-ethylquinazolin-6-yl)-1-methyl-1H-pyrazol-3-yl)-2-(4-(3-(methylamino)propoxy)-3-(trifluoromethyl)phenyl)acetamide]",5 to 50,≤ 5
"Cn1nc(NC(=O)Cc2cccc(C(F)(F)F)c2)cc1-c1cc2cnc(N[C@H]3CC[C@H](N)CC3)nc2c2ccccc12 [Compound 31, N-(5-(2-(((1r,4r)-4-aminocyclohexyl)amino)benzo[h]quinazolin-6-yl)-1-methyl-1H-pyrazol-3-yl)-2-(3-(trifluoromethyl)phenyl)acetamide]",> 100,> 100
"CCc1cc(-c2cc(NC(=O)Cc3ccc(OC4CCN(C)CC4)c(C(F)(F)F)c3)nn2C)cc2cnc(N[C@H]3CC[C@H](N)CC3)nc12 [Compound 32, N-(5-(2-(((1r,4r)-4-aminocyclohexyl)amino)-8-ethylquinazolin-6-yl)-1-methyl-1H-pyrazol-3-yl)-2-(4-((1-methylpiperidin-4-yl)oxy)-3-(trifluoromethyl)phenyl)acetamide]",≤ 5,≤ 5
"CCc1cc(-c2cc(NC(=O)Cc3cc(C(F)(F)F)ccc3C)nn2C)cc2cnc(N[C@H]3CC[C@H](N)CC3)nc12 [Compound 34, N-(5-(2-(((1r,4r)-4-aminocyclohexyl)amino)-8-ethylquinazolin-6-yl)-1-methyl-1H-pyrazol-3-yl)-2-(2-methyl-5-(trifluoromethyl)phenyl)acetamide]",5 to 50,≤ 5
